Assay results published in ChEMBL document CHEMBL1154938 (Bioorg Med Chem Lett, 2010).

Experiments:
[1] = test system: Human immunodeficiency virus 1; experiment: Antiviral activity against CCR5-tropic recombinant HIV1 NLBal virus infected in JC53-BL cells assessed as inhibition of viral replication after 3 days by luciferase reporter gene assay; assay type: functional, organism-based; settings: Human immunodeficiency virus 1, NLBal, JC53BL, 72 h
[2] = target: C-C chemokine receptor type 5 (Homo sapiens, UniProt P51681); experiment: Displacement of […] from human CCR5 receptor coexpressed with Galphai6 in CHO cells after 2 hrs by scintillation counting; assay type: cell-based
Sequence of C-C chemokine receptor type 5 (P51681 whole entry): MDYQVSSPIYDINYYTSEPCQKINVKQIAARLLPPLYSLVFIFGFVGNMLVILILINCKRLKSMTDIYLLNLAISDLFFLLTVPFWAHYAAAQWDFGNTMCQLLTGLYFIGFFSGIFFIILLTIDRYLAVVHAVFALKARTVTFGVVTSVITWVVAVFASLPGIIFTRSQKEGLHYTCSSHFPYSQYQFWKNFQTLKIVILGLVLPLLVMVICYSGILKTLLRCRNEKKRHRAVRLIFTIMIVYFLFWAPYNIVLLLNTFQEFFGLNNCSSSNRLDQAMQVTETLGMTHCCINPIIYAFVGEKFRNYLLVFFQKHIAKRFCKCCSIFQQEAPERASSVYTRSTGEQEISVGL

| IC50 [1] | IC50 [2] | Compound |
| --- | --- | --- |
| ≥ 625 nM | – | Cc1nnc(C)n1C1CCN(CC[C@H](NC(=O)C2CCOC2)c2cccc(F)c2)CC1 (some centres not stated) |
| ≥ 625 nM | 43 nM | Cc1nnc(C)n1[C@H]1C[C@@H]2CN(CC[C@H](NC(=O)C3CCOCC3)c3cccc(F)c3)C[C@@H]2C1 |
| 210 nM | 18 nM | Cc1nnc(C)n1[C@@H]1C[C@@H]2CN(CC[C@H](NC(=O)C3CCOC3)c3cccc(F)c3)C[C@@H]2C1 (some centres not stated) |
| 40 nM | 35 nM | Cc1nnc(C)n1[C@H]1C[C@@H]2CN(CC[C@H](NC(=O)C3CCOC3)c3cccc(F)c3)C[C@@H]2C1 (some centres not stated) |
| ≥ 625 nM | 30 nM | Cc1nnc(C)n1[C@@H]1C[C@@H]2CN(CC[C@H](NC(=O)C3CCOCC3)c3cccc(F)c3)C[C@@H]2C1 |
| 41 nM | 8 nM | Cc1nnc(C)n1[C@@H]1C[C@@H]2CN(CC[C@H](NC(=O)C3CCC(F)(F)CC3)c3cccc(F)c3)C[C@@H]2C1 |
| ≥ 625 nM | 38 nM | Cc1nnc(C)n1C1CCN(CC[C@H](NC(=O)C2CCC(F)(F)CC2)c2cccc(F)c2)CC1 |

More lines, now with the values behind:

| Compound | IC50 [1] | IC50 [2] |
| --- | --- | --- |
| Cc1nnc(C)n1[C@H]1C[C@@H]2CN(CC[C@H](NC(=O)C3CC(F)(F)C3)c3cccc(F)c3)C[C@@H]2C1 | 200 nM | 6 nM |
| Cc1nnc(C)n1[C@H]1C[C@@H]2CN(CC[C@H](NC(=O)C3CCC(F)(F)CC3)c3cccc(F)c3)C[C@@H]2C1 | 81 nM | – |
| Cc1nnc(C)n1[C@@H]1C[C@@H]2CN(CC[C@H](NC(=O)C3CC(F)(F)C3)c3cccc(F)c3)C[C@@H]2C1 | 74 nM | 6 nM |
| Cc1nnc(C)n1[C@H]1C[C@H]2CC[C@@H](C1)N2CC[C@H](NC(=O)C1CCOCC1)c1cccc(F)c1 | 220 nM | 13 nM |
| Cc1nnc(C)n1[C@H]1C[C@H]2CC[C@@H](C1)N2CC[C@H](NC(=O)C1CCC(F)(F)CC1)c1cccc(F)c1 | 5 nM | 5 nM |
| Cc1nnc(C)n1[C@H]1C[C@H]2CC[C@@H](C1)N2CC[C@H](NC(=O)C1CCOC1)c1cccc(F)c1 (some centres not stated) | 62 nM | 7 nM |
| Cc1nnc(C)n1[C@H]1C[C@H]2CC[C@@H](C1)N2CC[C@H](NC(=O)C1CC(F)(F)C1)c1cccc(F)c1 | 24 nM | 5 nM |
| Cc1nnc(C(C)C)n1[C@H]1C[C@H]2CC[C@@H](C1)N2CC[C@H](NC(=O)C1CCC(F)(F)CC1)c1ccccc1 [MARAVIROC] | 2.8 nM | – |
